Patent publication US20240122879A1, “COMPOSITIONS AND METHODS FOR TREATING OCULAR CHEMICAL BURNS” (OHIO STATE INNOVATION FOUNDATION, priority 2022, published 2024)
“Also recorded” adds a separate entry of the source.

Key:
GsdmD [1] = assay: Western blot of GsdmD cleavage in isolated primary mouse neutrophils; assay type: cell-based; details: primary neutrophils from mouse bone marrow; FIG. 12
From the text: (§1) To further confirm neutrophils undergo pyrotposis, primary neutrophils were isolated and purified from mouse bone marrow. Isolated neutrophils underwent pyroptosis quickly after isolation followed by activation of apoptosis, as evidenced by cleaved caspase-3 (FIG. 11).
(§2) Bone marrow samples were obtained as previously described. Briefly, lower limbs were collected from euthanized mice. All attached soft tissue was removed to fully expose the femurs and tibias. An 18G needle was inserted into hollow of the bone and pulse flush buffer (2% FBS in PBS) used to flush marrow into a 15 ml sterile centrifuge tube. The solution was then filtered with a 70-100 μm filter. The solution was centrifuged at […], and the bone marrow cells were resuspended in red blood cell lysis buffer for 5 minutes.
(§3) Separation of neutrophils using density gradient centrifugation was performed as previously described (Swamydas, et al. J Vis Exp. 2013 (77):e50586). The bone marrow cells were resuspended in 1 ml of ice-cold sterile PBS. Using a 15 mL conical tube, 3 ml of Histopaque 1119 was first added followed by an overlay of 3 mL of Histopaque 1077. The bone marrow cell suspension was then overlaid on the Histopaque 1077. The samples were centrifuged for 30 min at 2,000 rpm at 25° C. Neutrophils were then at the interface of the Histopaque 1119 and Histopaque 1077 layers. […]

Caspase-3 = assay: Western blot of Caspase-3 cleavage in isolated primary mouse neutrophils; assay type: cell-based; details: primary neutrophils from mouse bone marrow; FIG. 12
From the text: as §1, §2, §3

mCECs = assay: Scratch wound assay of mCECs cultured with dissected corneas from treated mice; assay type: cell-based, mouse; details: FIG. 3A, 3B
Description: The potential function of neutrophil pyroptosis in corneal wound healing was next tested. Mouse corneas were first dissected with or without injury from WT, GsdmD^−/−, Gr-1 treated, and disulfiram treated mice, and cultured the dissected corneas with mCECs. A scratch wound was then created in the mCEC.
For disulfiram treatment of mice, disulfiram was dissolved in sesame oil (12.5 mg/ml). Mice were injected 16 hours before injury through intraperitoneal injection (50 mg/kg); injection continued daily for the duration of the experiment. For Gr-1 antibody treatment, mice were injected 16 hours and immediately before injury through intraperitoneal injection (100 μg/mouse).
To induce cellular migration, an in vitro scratch test was performed using mCECs. Cells were treated with dissected corneas or cytokines when they reached confluence, were subsequently scratched with a micropipette tip, and incubated for up to 12 hrs. Images were taken at 0, 3, 6, and 9 hours after the initial scratch. Images of wound closure were quantified by using ImageJ software.

injured corneas [2] = assay: Alkali induced corneal injury: re-epithelialization / wound healing (fluorescein); assay type: in vivo, mice; details: disulfiram 50 mg/kg i.p. daily from 16 h before injury, antibodies before wounding, FIG. 7C-7F
Description: (§4) All animal care and usage followed NIH guidelines and were in accordance with the ARVO Statement for the Use of Animals in Ophthalmic and Vision Research. Rodent studies received IACUC approval by The Ohio State University. For all corneal wound healing models, injury was induced under anesthesia, all animals received topical antibiotics, and topical and systemic analgesics were provided for at least 72 h. To induce corneal injury, a 1.5 mm filter paper soaked in 1N NaOH was applied to the axial cornea for 30 seconds. The filter paper was then removed and the cornea rinsed with PBS for two minutes. After the cornea was thoroughly rinsed, fluorescein stain was applied to the cornea to verify corneal ulceration. For disulfiram treatment of mice, disulfiram was dissolved in sesame oil (12.5 mg/ml). Mice were injected 16 hours before injury through intraperitoneal injection (50 mg/kg); injection continued daily for the duration of the experiment. For Gr-1 antibody treatment, mice were injected 16 hours and immediately before injury through intraperitoneal injection (100 μg/mouse).

injured corneas [3] = assay: Alkali induced corneal injury: corneal neovascularization, CD31 staining of corneal flat mount; assay type: in vivo, mice; details: disulfiram 50 mg/kg i.p. daily, FIG. 7G, 7H
Description: as §4, with “μg/mouse). Dissected eye from mice were fixed in 4% PFA for 24 to 48 hours at 4° C. […]” for “μg/mouse).”

GsdmD [4] = assay: Western blot of corneal samples after alkali injury: GsdmD cleavage / pyroptosis; assay type: in vivo, mice; details: FIG. 2C
From the text: (§5) While neutrophil pyroptosis plays a detrimental role during corneal wound healing, the initial neutrophil infiltration is critical for removing dead corneal cells and debris, which is part of the healing process. Thus, complete depletion of neutrophil may not be the ideal option to promote normal corneal healing. Disulfiram is an FDA approved drug, which has been recently been identified as a pyroptosis inhibitor (Hu, et al. Nat Immunol. 2020 21(7):736-745). Thus, tested was whether application of disulfiram could be an effective means to promote corneal wound healing. […] To confirm treatment of disulfiram could inhibit post-injury pyroptosis, Western blot analysis was performed on corneal samples before and after injury.
(§6) All animal care and usage followed NIH guidelines and were in accordance with the ARVO Statement for the Use of Animals in Ophthalmic and Vision Research. Rodent studies received IACUC approval by The Ohio State University. For all corneal wound healing models, injury was induced under anesthesia, all animals received topical antibiotics, and topical and systemic analgesics were provided for at least 72 h. To induce corneal injury, a 1.5 mm filter paper soaked in 1N NaOH was applied to the axial cornea for 30 seconds. The filter paper was then removed and the cornea rinsed with PBS for two minutes. […]

Caspase-1 = assay: Western blot: Caspase-1 cleavage after disulfiram treatment; assay type: in vivo, mice; details: FIG. 17
From the text: as §5, §6

[5] = test system: IL-1β, caspase 1 and GsdmD; details: discussion statement following citation of Hu et al.; cited from earlier work

CCN(CC)C(=S)SSC(=S)N(CC)CC [Disulfiram, Tetraethylthiuram disulfide]
GsdmD cleavage in isolated neutrophils (GsdmD [1]): inhibits cleavage of GsdmD; also recorded: significantly inhibit
Caspase-3 cleavage in isolated neutrophils (Caspase-3): not cleavage of Caspase-3
inhibitory effects of injured corneas on mCECs migration (scratch wound closure) (mCECs): greatly reduced
corneal wound healing / re-epithelialization (injured corneas [2]): dramatically accelerated wound healing; also recorded: improved healing outcomes; also recorded: promote the re-epithelialization
corneal neovascularization (CNV), CD31 staining (injured corneas [3]): significantly reduced; also recorded: significantly reduce neovascularization
cleavage of GsdmD (GsdmD-N expression) (GsdmD [4]; FIG. 17 (disulfiram), 24 hours after injury (Gr-1 antibody)): suppress cleavage
activation of pyroptosis after corneal injury (GsdmD [4]; corneal samples after alkali injury, FIG. 17): effectively inhibited pyroptosis
cleavage of Caspase-1 (Caspase-1): suppress cleavage
cleavage of caspase 1 and GsdmD [5]: inhibit the cleavage of caspase 1 and GsdmD
release of mature IL-1β [5]: inhibit the release of mature IL-1β
